Assay results reported in publication PMC4774972, “Activity and Predicted Nephrotoxicity of Synthetic Antibiotics Based on Polymyxin B” (Journal of Medicinal Chemistry, 2016).
≈ marks a conversion by molar mass, not a printed value. Numbered stars: 1 amine (or outer) side, 2 acyl side, 3 side chain; on linkers, the order of the positions; unused ones are H or OH. Bridge positions count the residues as written; N and C are the ends. Square brackets hold non-standard residues; d marks the D form. Peptide text beside a SMILES is read from it. * marks the point of attachment. Benzoyl(4-OPh) = O=C(c1ccc(Oc2ccccc2)cc1)*; Benzoyl(4-Ph) = O=C(c1ccc(-c2ccccc2)cc1)*; dGly(nOct) = CCCCCCCC[C@@H](N)C(=O)O; X1 = c1ccc(-c2ccc(N*)cc2)cc1; Octanoyl = CCCCCCCC(=O)*; Dab = NCC[C@H](N)C(=O)O; CO = O=C([*:1])[*:2]

Assays:
P. aeruginosa ATCC 27853 = settings: MIC P. aeruginosa ATCC 27853 (µg/mL)
K. pneumoniae ATCC 13883 = settings: MIC K. pneumoniae ATCC 13883 (µg/mL)
[1] = tested on: A. baumannii CI Ptyela 100734512:2, PmxR; settings: MIC A. baumannii CI Ptyela 100734512:2, PmxR (µg/mL)
[2] = tested on: K. pneumoniae CI Koprana 100650661:1, PmxR; settings: MIC K. pneumoniae CI Koprana 100650661:1, PmxR (µg/mL)
E. coli ATCC 25922 = settings: MIC E. coli ATCC 25922 (µg/mL)
[3] = tested on: K. pneumoniae CI 138-16357-20362, PmxR; settings: MIC K. pneumoniae CI 138-16357-20362, PmxR (µg/mL)
[4] = tested on: P. aeruginosa PA9704, PmxR; settings: MIC P. aeruginosa PA9704, PmxR (µg/mL)
[5] = tested on: S. aureus ATCC 25923, MSSA; settings: MIC S. aureus ATCC 25923, MSSA (µg/mL)
HepG2 = settings: CC50 HepG2 (µM)
[6] = tested on: primary human renal proximal tubule epithelial (hPT) cells; assay: Nephrotoxicity assay, LDH release; assay type: cell-based; settings: for release of LDH: at 100 μg/mL in the primary kidney cells; for LDH release CC50: primary human kidney cells
Text: (§1) Primary human renal proximal tubule epithelial (hPT) cells were isolated and used for in vitro prediction of drug-induced nephrotoxicity[63],[64],[69] by measuring the release of metabolism enzymes, LDH and GGT, as previously described.[70]

[7] = tested on: K. pneumoniae CI Koprana 100650661:1, PmxR; assay: microbe, parasite or virus in culture; assay type: cell-based, Klebsiella pneumoniae; settings: carbapenem & polymyxin resistant clinical isolate; MHB, 5 × 10^5 CFU/mL, 18 h at 37 °C
Description: (§2) Bacteria were either obtained from American Type Culture Collection (ATCC; Manassas, VA, USA) or independent academic clinical isolate collections, as listed in Table S2. Bacteria were cultured in nutrient broth (NB; Bacto Laboratories, catalog no. 234000) or Muller Hinton broth (MHB; Bacto Laboratories, catalog no. 211443) at 37 °C overnight with shaking (∼180 rpm). A sample of each culture was then diluted 50-fold in fresh MHB and incubated at 37 °C for 1.5–3 h with shaking (∼180 rpm). Compound stock solutions were prepared as 0.64 or 2.56 mg/mL in water. The compounds, at twice the final desired concentration, were serially diluted 2-fold across the wells of 96-well plates (Polystyrene, Corning, catalogue No. 3370). Mid log phase bacterial cultures (after 1.5–3 h incubation) were diluted to a final concentration of 5 × 10^5 colony forming units (CFU)/mL, and 50 μL was added to each well giving a final compound concentration range of 32 μg/mL to 0.015 μg/mL (128–0.06 μg/mL for colistin and polymyxin B against the polymyxin resistant clinical isolates). MICs were determined visually after 18 h of incubation at 37 °C, with the MIC defined as the lowest compound concentration at which no bacterial growth was visible.
(§3) Table S2. Bacterial strains used for Minimum Inhibitory Concentration (MIC) […]
(§4) Organism Strain Strain description Strain Source
(§5) Escherichia coli ATCC 25922 FDA strain Seattle 1946 ATCC
(§6) Klebsiella pneumoniae ATCC 13883 Control strain ATCC
(§7) Klebsiella pneumoniae ATCC 700603 Multi-drug resistant ATCC
(§8) Klebsiella pneumoniae BAA-2146 Metallo-beta-lactamase- ATCC
(§9) Acinetobacter baumannii ATCC 19606 Type strain ATCC
(§10) Pseudomonas aeruginosa ATCC 27853 Type strain ATCC
(§11) Pseudomonas aeruginosa FADDI-PA070 Clinical isolate, Nation and Li labs, polymyxin resistant Monash University
(§12) Clinical isolate, Wang Hengzhuang, Pseudomonas aeruginosa PA9704 polymyxin resistant University Hospital of […]
(§13) Ptyela Clinical isolate, Ilias Karaiskos and Acinetobacter baumannii Carbapenem & Helen Giamarellou
(§14) Clinical isolate, Medicine, Hygeia
(§15) Klebsiella pneumoniae Koprana Carbapenem, & General Hospital, […]
(§16) Clinical isolate, (Instituto Dante […]
(§17) polymyxin resistant Cardiologia, São […]

[8] = tested on: K. pneumoniae CI 138-16357-20362, PmxR; assay: microbe, parasite or virus in culture; assay type: cell-based, Klebsiella pneumoniae
Description: as §2, §3, §4, §5, §6, §7, §8, §9, §10, §11, §12, §13, §14, §15, §16, §17

[9] = tested on: primary human renal proximal tubule epithelial (hPT) cells; assay: Nephrotoxicity assay, GGT release; assay type: cell-based; settings: for release of GGT: at 100 μg/mL in the primary kidney cells; for GGT release CC50: primary human kidney cells
Text: as §1

[10] = carbapenem & polymyxin resistant clinical isolate, MHB, 5 × 10^5 CFU/mL, 18 h at 37 °C

| SMILES | MIC (P. aeruginosa ATCC 27853) | MIC (K. pneumoniae ATCC 13883) | MIC [1] | MIC [2] | MIC (E. coli ATCC 25922) | MIC [3] | MIC [4] | MIC [5] | CC50 (HepG2) | release of LDH [6] | LDH release CC50 [6] | MIC K. pneumoniae CI Koprana 100650661:1, PmxR [7] | MIC K. pneumoniae CI 138-16357-20362, PmxR [8, 10] | release of GGT [9] | GGT release CC50 [9] | MIC K. pneumoniae CI 138-16357-20362, PmxR ([8]; CI 138-16357-20362, PmxR, 18 h) |
| --- | --- | --- | --- | --- | --- | --- | --- | --- | --- | --- | --- | --- | --- | --- | --- | --- |
| CCCCCCCC[C@H]1NC(=O)[C@H](CCN)NC(=O)[C@@H](NC(=O)[C@H](CCN)NC(=O)[C@@H](NC(=O)[C@H](CCN)NC(=O)CCCCCCC)[C@@H](C)O)CCNC(=O)[C@H]([C@@H](C)O)NC(=O)[C@H](CCN)NC(=O)[C@H](CCN)NC(=O)[C@H](CC(C)C)NC1=O (Octanoyl-[Dab]T[Dab][Dab][Dab][dGly(nOct)]L[Dab][Dab]T; lactam 4-C) | 2 µg/mL (≈ 1.65 µM) | 2 µg/mL (≈ 1.65 µM) | 16 µg/mL (≈ 13.2 µM) | 16 µg/mL (≈ 13.2 µM) | 2 µg/mL (≈ 1.65 µM) | 16 µg/mL (≈ 13.2 µM) | 8 µg/mL (≈ 6.6 µM) | 16 µg/mL (≈ 13.2 µM) | 254 µM |  |  |  |  |  |  |  |
| CC(C)C[C@@H]1NC(=O)[C@@H](Cc2ccccc2)NC(=O)[C@H](CCN)NC(=O)[C@@H](NC(=O)[C@H](CCN)NC(=O)[C@@H](NC(=O)[C@H](CCN)NC(=O)c2ccc(-c3ccccc3)cc2)[C@@H](C)O)CCNC(=O)[C@H]([C@@H](C)O)NC(=O)[C@H](CCN)NC(=O)[C@H](CCN)NC1=O [Compound 10] ({Benzoyl(4-Ph)}-[Dab]T[Dab][Dab][Dab][dF]L[Dab][Dab]T; lactam 4-C) |  |  |  | > 32 µg/mL |  | > 32 µg/mL | > 32 µg/mL | > 32 µg/mL | 298 µM | almost no release | >128 µg/mL | >32 µg/mL | >32 µg/mL | almost no release | >128 µg/mL |  |
| CC(C)C[C@@H]1NC(=O)[C@@H](Cc2ccccc2)NC(=O)[C@H](CCN)NC(=O)[C@@H](NC(=O)[C@H](CCN)NC(=O)[C@@H](NC(=O)[C@H](CCN)NC(=O)c2ccc(Oc3ccccc3)cc2)[C@@H](C)O)CCNC(=O)[C@H]([C@@H](C)O)NC(=O)[C@H](CCN)NC(=O)[C@H](CCN)NC1=O [Compound 14] ({Benzoyl(4-OPh)}-[Dab]T[Dab][Dab][Dab][dF]L[Dab][Dab]T; lactam 4-C) |  |  |  | > 32 µg/mL |  | > 32 µg/mL |  | > 32 µg/mL | 287 µM | almost no release | >128 µg/mL | >32 µg/mL |  | almost no release | >128 µg/mL | >32 µg/mL |
| CC(C)C[C@@H]1NC(=O)[C@@H](Cc2ccccc2)NC(=O)[C@H](CCN)NC(=O)[C@@H](NC(=O)[C@H](CCN)NC(=O)[C@@H](NC(=O)[C@H](CCN)NC(=O)Nc2ccc(-c3ccccc3)cc2)[C@@H](C)O)CCNC(=O)[C@H]([C@@H](C)O)NC(=O)[C@H](CCN)NC(=O)[C@H](CCN)NC1=O [Compound 15] ({X1-CO}-[Dab]T[Dab][Dab][Dab][dF]L[Dab][Dab]T; lactam 4-C) |  |  |  |  |  | > 32 µg/mL |  |  | 316 µM |  | >128 µg/mL |  | >32 µg/mL |  | >128 µg/mL |  |
